How the values were obtained:
Assay type in all cases: cell-based, human
OPM2 cells = assay: CellTiter-Glo cell viability, OPM2 (normal serum); conditions: OPM2 cells, 6 days
AMO-1 cells = assay: 6-day CellTiter-Glo cell viability, AMO-1; conditions: AMO1 cells, 6 days
KMS-11 cells = assay: 6-day CellTiter-Glo cell viability, KMS-11; conditions: KMS11 cells, 6 days
RPMI-8226 cells = assay: 6-day CellTiter-Glo cell viability, RPMI-8226; conditions: RPMI8226 cells, 6 days
MM1.S cells = assay: CellTiter-Glo cell viability, MM1.S; conditions: MM1S cells, 6 days
MM1.R cells = assay: CellTiter-Glo cell viability, MM1.R; conditions: MM1R cells, 6 days
U266B1 cells = assay: 6-day CellTiter-Glo cell viability, U266B1; conditions: U266B1 cells, 6 days
NCI-H929 cells = assay: CellTiter-Glo cell viability, NCI-H929 (normal serum); conditions: NCIH929 cells, 6 days
EJM cells = assay: 6-day CellTiter-Glo cell viability, EJM; conditions: EJM cells, 6 days
MOLP8 cells = assay: CellTiter-Glo cell viability, MOLP8; conditions: MOLP8 cells, 6 days
LP-1 cells = assay: 6-day CellTiter-Glo cell viability, LP-1; conditions: LP1 cells, 6 days

N.N.[Cl][Pt][Cl] [cisplatin]
GI50 (OPM2 cells; CellTiter-Glo, read-out: GI50): 17 µM
RminAve (OPM2 cells; negative = cell death vs T0): −99.784%
GI50 (AMO-1 cells; CellTiter-Glo, read-out: GI50): 8.59 µM
RminAve (AMO-1 cells; negative = cell death vs T0): −99.8648%
GI50 (KMS-11 cells; CellTiter-Glo, read-out: GI50): 14.4 µM
RminAve (KMS-11 cells; negative = cell death vs T0): −99.8489%
GI50 (RPMI-8226 cells; CellTiter-Glo, read-out: GI50): 16.3 µM
RminAve (RPMI-8226 cells; negative = cell death vs T0): −99.2206%
GI50 (MM1.S cells; CellTiter-Glo, read-out: GI50): 10.2 µM
RminAve (MM1.S cells; negative = cell death vs T0): −99.8687%
GI50 (MM1.R cells; CellTiter-Glo, read-out: GI50): 7.3 µM
RminAve (MM1.R cells; negative = cell death vs T0): −99.9355%
GI50 (U266B1 cells; CellTiter-Glo, read-out: GI50): 39.9 µM
RminAve (U266B1 cells; negative = cell death vs T0): −99.4122%
GI50 (NCI-H929 cells; CellTiter-Glo, read-out: GI50): 21.4 µM
RminAve (NCI-H929 cells; negative = cell death vs T0): −99.945%
GI50 (EJM cells; CellTiter-Glo, read-out: GI50): 30.1 µM
RminAve (EJM cells; negative = cell death vs T0): −99.8757%
GI50 (MOLP8 cells; CellTiter-Glo, read-out: GI50): 5.07 µM
RminAve (MOLP8 cells; negative = cell death vs T0): −99.8824%
GI50 (LP-1 cells; CellTiter-Glo, read-out: GI50): 50.1 µM
RminAve (LP-1 cells; negative = cell death vs T0): −97.8184%

From US12043670B2, “Anti-BCMA antibody-drug conjugates and methods of use” (Eisai R&D Management Co., Ltd., priority 2020, dated 2024)
